Results reported in ChEMBL document CHEMBL1201862, “PubChem BioAssay data set” (2004).
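Dose response: 5 concentrations. Exposure: 48 h. Format: 96-well plates. Endpoint: linear interpolation; highest concentration if not reached. Abbreviation: GI50, concentration required for 50% inhibition of growth.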 Calls of active or inactive are those of the source. Rule as the data show it: active = GI50 up to about 1.1 µM and inactive = higher.

How the values were obtained:
Experiment in all cases: growth of human tumour cells (NCI), 48 h
A498 = system: A498
SK-MEL-28 = system: SK-MEL-28
Malme-3M = system: Malme-3M
SK-MEL-5 = system: SK-MEL-5
HOP-62 = system: HOP-62
OVCAR-5 = system: OVCAR-5
NCI-H226 = system: NCI-H226
HT-29 = system: HT-29
U-251 = system: U-251
SF-539 = system: SF-539
786-0 = system: 786-0
LXFL 529 = system: LXFL 529
OVCAR-3 = system: OVCAR-3
CCRF-CEM = system: CCRF-CEM
MOLT-4 = system: MOLT-4
UACC-62 = system: UACC-62
DU-145 = system: DU-145
MDA-MB-231 = system: MDA-MB-231
MDA-N = system: MDA-N
PC-3 = system: PC-3

SMILES | GI50 (A498) | GI50 (SK-MEL-28) | GI50 (Malme-3M) | GI50 (SK-MEL-5) | GI50 (HOP-62) | GI50 (OVCAR-5) | GI50 (NCI-H226) | GI50 (HT-29) | GI50 (U-251) | GI50 (SF-539) | GI50 (786-0) | GI50 (LXFL 529) | GI50 (OVCAR-3) | GI50 (CCRF-CEM) | GI50 (MOLT-4) | GI50 (UACC-62) | GI50 (DU-145) | GI50 (MDA-MB-231) | GI50 (MDA-N) | GI50 (PC-3)
N#C/C(=C\c1ccc(O)c(O)c1)C(=O)NC1CCC(CC2CCC(NC(=O)/C(C#N)=C/c3ccc(O)c(O)c3)CC2)CC1 (stereo not drawn) | 4.7 µM (inactive) | 3.22 µM (inactive) | 3.65 µM (inactive) | 1.93 µM (inactive) | 1.89 µM (inactive) | 2.08 µM (inactive) | 4.38 µM (inactive) | 1.32 µM (inactive) | 0.973 µM (active) | 0.536 µM (active) | 1.27 µM (inactive) | 0.433 µM (active) | 1.37 µM (inactive) | 0.293 µM (active) | 0.743 µM (active) | 1.59 µM (inactive) | – | – | – | –
O=C(CCc1cc(-c2ccccc2)nc(S)n1)N(Cc1ccccc1)Cc1ccccc1 | > 100 µM (inactive) | – | > 100 µM (inactive) | – | > 100 µM (inactive) | > 100 µM (inactive) | > 100 µM (inactive) | > 100 µM (inactive) | > 100 µM (inactive) | > 100 µM (inactive) | > 100 µM (inactive) | > 100 µM (inactive) | > 100 µM (inactive) | > 100 µM (inactive) | > 100 µM (inactive) | > 100 µM (inactive) | – | – | – | –
CCOC(=O)c1cccnc1C(OC(C)=O)OC(C)=O | > 100 µM (inactive) | > 100 µM (inactive) | > 100 µM (inactive) | > 100 µM (inactive) | > 100 µM (inactive) | > 100 µM (inactive) | > 100 µM (inactive) | > 100 µM (inactive) | > 100 µM (inactive) | > 100 µM (inactive) | > 100 µM (inactive) | > 100 µM (inactive) | > 100 µM (inactive) | > 100 µM (inactive) | > 100 µM (inactive) | > 100 µM (inactive) | – | – | – | –
C=CC(=O)C#CC#CC/C=C\CCCCCCC | > 20.6 µM (inactive) | > 20.6 µM (inactive) | > 20.6 µM (inactive) | > 20.6 µM (inactive) | > 10.1 µM (inactive) | > 20.6 µM (inactive) | > 20.6 µM (inactive) | > 20.6 µM (inactive) | > 20.6 µM (inactive) | > 20.6 µM (inactive) | > 10.1 µM (inactive) | 7.74 µM (inactive) | > 20.6 µM (inactive) | 4.9 µM (inactive) | 4.53 µM (inactive) | > 20.6 µM (inactive) | > 20.6 µM (inactive) | > 20.6 µM (inactive) | – | –
CCOC(=O)CC1COc2ccc3c(c21)OCO3 (stereo not drawn) | > 100 µM (inactive) | > 100 µM (inactive) | > 100 µM (inactive) | > 100 µM (inactive) | > 100 µM (inactive) | > 100 µM (inactive) | > 100 µM (inactive) | > 100 µM (inactive) | > 100 µM (inactive) | > 100 µM (inactive) | > 100 µM (inactive) | > 100 µM (inactive) | > 100 µM (inactive) | > 100 µM (inactive) | > 100 µM (inactive) | > 100 µM (inactive) | – | – | – | –
O=C1CCC(=O)C(C(=O)CCC(=O)Nc2cccc(Cl)c2)C1 (stereo not drawn) | > 100 µM (inactive) | – | > 100 µM (inactive) | > 100 µM (inactive) | > 100 µM (inactive) | > 100 µM (inactive) | > 100 µM (inactive) | > 100 µM (inactive) | > 100 µM (inactive) | > 100 µM (inactive) | > 100 µM (inactive) | > 100 µM (inactive) | > 100 µM (inactive) | > 100 µM (inactive) | > 100 µM (inactive) | > 100 µM (inactive) | – | – | – | –
COC(=O)CSc1nnc(-c2ccccc2)[nH]1 | > 100 µM (inactive) | > 100 µM (inactive) | > 100 µM (inactive) | > 100 µM (inactive) | > 100 µM (inactive) | > 100 µM (inactive) | > 100 µM (inactive) | > 100 µM (inactive) | > 100 µM (inactive) | > 100 µM (inactive) | > 100 µM (inactive) | > 100 µM (inactive) | > 100 µM (inactive) | > 100 µM (inactive) | 16.4 µM (inactive) | > 100 µM (inactive) | – | – | – | –
COc1ccc(C2S/C(=C\c3ccccc3O)C(=O)N2NC(=O)Cc2ccccc2)cc1 (stereo not drawn) | > 100 µM (inactive) | 40.3 µM (inactive) | > 100 µM (inactive) | > 100 µM (inactive) | > 100 µM (inactive) | > 100 µM (inactive) | > 100 µM (inactive) | > 100 µM (inactive) | > 100 µM (inactive) | > 100 µM (inactive) | > 100 µM (inactive) | 93.1 µM (inactive) | – | 48.5 µM (inactive) | 39.5 µM (inactive) | 78.7 µM (inactive) | – | – | – | –
COC(=O)C(CC(=O)Nc1ccc(Cl)c(Cl)c1)C(=O)C(=O)NC1C2CC3CC(C2)CC1C3 (stereo not drawn) | > 100 µM (inactive) | > 100 µM (inactive) | > 100 µM (inactive) | > 100 µM (inactive) | > 100 µM (inactive) | > 100 µM (inactive) | > 100 µM (inactive) | > 100 µM (inactive) | > 100 µM (inactive) | > 100 µM (inactive) | > 100 µM (inactive) | > 100 µM (inactive) | > 100 µM (inactive) | > 100 µM (inactive) | > 100 µM (inactive) | 92.7 µM (inactive) | – | – | – | –
COc1ccc(C2NC3=C(CCCC3)N2)cc1 | 79.4 µM (inactive) | > 100 µM (inactive) | 40.4 µM (inactive) | 27.2 µM (inactive) | > 100 µM (inactive) | 80.2 µM (inactive) | > 100 µM (inactive) | 42.9 µM (inactive) | 53.8 µM (inactive) | 87.5 µM (inactive) | 41.1 µM (inactive) | 59.8 µM (inactive) | 71 µM (inactive) | > 100 µM (inactive) | 59.3 µM (inactive) | – | – | – | – | –
CCCCCCCCCCC(O)CCCCCCC(=O)O (stereo not drawn) | 23.2 µM (inactive) | 45.8 µM (inactive) | 26.2 µM (inactive) | 16 µM (inactive) | 35.9 µM (inactive) | 29.4 µM (inactive) | 52 µM (inactive) | 19.9 µM (inactive) | 14.9 µM (inactive) | 24.3 µM (inactive) | 24.5 µM (inactive) | 23.4 µM (inactive) | 19.9 µM (inactive) | 27.5 µM (inactive) | 12.7 µM (inactive) | 19.8 µM (inactive) | – | – | – | –
O=C(OCc1ccccc1)N1N=NC2C3CC(OCc4ccccc4)(OCc4ccccc4)C(O3)C21 (stereo not drawn) | 41.7 µM (inactive) | 21.3 µM (inactive) | 16.1 µM (inactive) | 9.66 µM (inactive) | 24.7 µM (inactive) | 26 µM (inactive) | 12.6 µM (inactive) | 26 µM (inactive) | 40.6 µM (inactive) | 32.7 µM (inactive) | 29.1 µM (inactive) | 18.8 µM (inactive) | 16.6 µM (inactive) | 21.3 µM (inactive) | 5.5 µM (inactive) | 17.1 µM (inactive) | – | – | – | –
O=C1C(=O)N(c2ccc(Cl)cc2)C(=O)/C(=N/c2cccc3c(=O)[nH][nH]c(=O)c23)C1c1nc2ccccc2o1 (stereo not drawn) | > 100 µM (inactive) | > 100 µM (inactive) | > 100 µM (inactive) | > 100 µM (inactive) | > 100 µM (inactive) | > 100 µM (inactive) | > 100 µM (inactive) | > 100 µM (inactive) | > 100 µM (inactive) | > 100 µM (inactive) | > 100 µM (inactive) | > 100 µM (inactive) | > 100 µM (inactive) | > 100 µM (inactive) | > 100 µM (inactive) | > 100 µM (inactive) | – | – | – | –
COC(=O)/C(=C/c1ccc(OC)cc1)C(C(=O)O)=C(C)C | > 100 µM (inactive) | > 100 µM (inactive) | > 100 µM (inactive) | > 100 µM (inactive) | > 100 µM (inactive) | > 100 µM (inactive) | > 100 µM (inactive) | > 100 µM (inactive) | > 100 µM (inactive) | > 100 µM (inactive) | > 100 µM (inactive) | > 100 µM (inactive) | > 100 µM (inactive) | > 100 µM (inactive) | > 100 µM (inactive) | > 100 µM (inactive) | – | – | – | –
CC1OC(OCC2OC(Oc3c(-c4ccc(O)cc4)oc4cc(O)cc(O)c4c3=O)C(OC3OCC(O)(CO)C3O)C(O)C2O)C(O)C(O)C1O (stereo not drawn) | > 100 µM (inactive) | > 100 µM (inactive) | > 100 µM (inactive) | > 100 µM (inactive) | > 100 µM (inactive) | > 100 µM (inactive) | > 100 µM (inactive) | > 100 µM (inactive) | 44.6 µM (inactive) | > 100 µM (inactive) | 90.8 µM (inactive) | > 100 µM (inactive) | > 100 µM (inactive) | 25.7 µM (inactive) | > 100 µM (inactive) | > 100 µM (inactive) | – | – | – | –
O=Cc1ccc(-c2cccs2)s1 | 2.46 µM (inactive) | > 100 µM (inactive) | > 100 µM (inactive) | 58.1 µM (inactive) | 67.6 µM (inactive) | 16.7 µM (inactive) | 1.94 µM (inactive) | 63.5 µM (inactive) | 12.2 µM (inactive) | > 100 µM (inactive) | > 100 µM (inactive) | 1.76 µM (inactive) | 12.4 µM (inactive) | 81.8 µM (inactive) | > 95.1 µM (inactive) | 1.16 µM (inactive) | > 100 µM (inactive) | > 80 µM (inactive) | > 100 µM (inactive) | > 100 µM (inactive)
C/C=C/C1=C(Cl)C(=O)[C@@H](Cl)[C@@]1(O)C(=O)OC [(+)-CRYPTOSPORIPSIN] | 5.77 µM (inactive) | 7.66 µM (inactive) | 2 µM (inactive) | 5.73 µM (inactive) | 1.52 µM (inactive) | 11.2 µM (inactive) | 10.2 µM (inactive) | 3.46 µM (inactive) | 5.02 µM (inactive) | 2.19 µM (inactive) | 4.94 µM (inactive) | 2.64 µM (inactive) | 2.45 µM (inactive) | 0.912 µM (active) | 3.66 µM (inactive) | 1.65 µM (inactive) | – | – | – | –
